In data set [1] the target is T1, von Hippel-Lindau disease tumor suppressor/Methylosome protein WDR77 (Homo sapiens, UniProt Q9BQA1+P40337). The data set is described as follows: PROTAC activity at MEP50/VHL in human MDA-MB-468 cells assessed as degradation at 2 uM by Western blot analysis. Type of data set: cell-based. To be noted: time 3-48 hrs. (In western blotting, separated proteins are transferred to a membrane and probed.)

The next data set has as its system PC-3. The data set is described as follows: Inhibition of colony formation in human PC-3 cells incubated for 10 days by crystal violet staining based analysis. Type of data set: functional, cell-based. As to conditions: time 10.0 day.
For another data set, the system named is BT-549. The data set is described as follows: Growth inhibition of human BT-549 cells assessed as cell viability measured after 5 days by CCK-8 assay. The class given is functional, cell-based. To be noted: time 5.0 day.
For data set [2], the target named is T1, von Hippel-Lindau disease tumor suppressor/Methylosome protein WDR77. The data set is described as follows: PROTAC activity at MEP50/VHL in human MDA-MB-453 cells assessed as degradation at 5 uM after 3 days by Western blot analysis. To be noted: time 3.0 day. The class given is cell-based.
The target is the same in data set [3]. Kind of data set: PROTAC activity at MEP50/VHL in human MDA-MB-231 cells assessed as degradation at 5 uM after 3 days by Western blot analysis. Type of data set: cell-based. To be noted: time 3.0 day.
The target in data set [4] is T2, von Hippel-Lindau disease tumor suppressor/Protein arginine N-methyltransferase 5 (Homo sapiens, UniProt O14744+P40337). The data set is described as follows: PROTAC activity at PRMT5/VHL in human MDA-MB-468 cells assessed as maximal degradation measured after 72 hrs by Western blot analysis relative to control. The class given is cell-based.
T2 sequence (O14744 whole entry, looked up): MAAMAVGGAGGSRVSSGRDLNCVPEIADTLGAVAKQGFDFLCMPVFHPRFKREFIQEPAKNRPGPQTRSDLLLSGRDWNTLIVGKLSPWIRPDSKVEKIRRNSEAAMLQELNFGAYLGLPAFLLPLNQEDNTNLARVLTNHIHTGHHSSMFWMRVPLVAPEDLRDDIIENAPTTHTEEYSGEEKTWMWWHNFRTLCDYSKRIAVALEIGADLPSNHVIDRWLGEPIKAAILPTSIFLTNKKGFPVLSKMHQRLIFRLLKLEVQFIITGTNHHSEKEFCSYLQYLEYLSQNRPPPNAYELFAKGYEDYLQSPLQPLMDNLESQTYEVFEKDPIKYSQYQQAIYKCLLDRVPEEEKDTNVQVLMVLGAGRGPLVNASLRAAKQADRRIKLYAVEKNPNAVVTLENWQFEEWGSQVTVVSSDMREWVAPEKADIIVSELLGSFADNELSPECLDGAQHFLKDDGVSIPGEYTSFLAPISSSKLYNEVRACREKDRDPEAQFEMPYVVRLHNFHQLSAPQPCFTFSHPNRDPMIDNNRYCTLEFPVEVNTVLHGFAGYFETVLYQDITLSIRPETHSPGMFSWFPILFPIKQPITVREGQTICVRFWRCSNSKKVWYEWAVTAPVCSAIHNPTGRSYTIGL
T2 sequence (P40337 whole entry, looked up): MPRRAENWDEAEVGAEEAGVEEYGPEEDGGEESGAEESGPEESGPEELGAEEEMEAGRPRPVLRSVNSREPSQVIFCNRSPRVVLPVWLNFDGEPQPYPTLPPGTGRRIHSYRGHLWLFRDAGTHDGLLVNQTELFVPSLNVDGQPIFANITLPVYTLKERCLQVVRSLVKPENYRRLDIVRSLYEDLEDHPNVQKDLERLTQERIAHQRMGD
For data set [5], the target named is T1, von Hippel-Lindau disease tumor suppressor/Methylosome protein WDR77. The data set is described as follows: PROTAC activity at MEP50/VHL in human MCF7 cells assessed as degradation at 5 uM after 3 days by Western blot analysis. The class given is cell-based. As to conditions: time 3.0 day.
In data set [6] the target is T2, von Hippel-Lindau disease tumor suppressor/Protein arginine N-methyltransferase 5. The data set is described as follows: PROTAC activity at PRMT5/VHL in human MDA-MB-468 cells assessed as degradation pretreated with MG132 proteasome inhibitor followed by treated at 5 uM of compound after 24 hrs by Western blot analysis. Type of data set: cell-based.
The target is the same in data set [7]. Kind of data set: PROTAC activity at PRMT5/VHL in human MDA-MB-453 cells assessed as degradation at 5 uM after 3 days by Western blot analysis. To be noted: time 3.0 day. The class given is cell-based.
Data set [8] has the same target. The data set is described as follows: PROTAC activity at PRMT5/VHL in human MDA-MB-231 cells assessed as degradation at 5 uM after 3 days by Western blot analysis. To be noted: time 3.0 day. Type of data set: cell-based.
The test system of data set [9] is MDA-MB-468. Kind of data set: Cytotoxicity against human MDA-MB-468 cells assessed as cell viability measured after 7 days by CCK-8 assay. As to conditions: MDA-MB-468, 168 h, time 7 day. Type of data set: functional. On the technique in general: Tetrazolium dyes change colour on reduction, which living cells bring about.
Data set [10] is described as follows: Plasma concentration in Swiss albino mouse at 50 mg/kg, ip measured after 8 hrs by LC-MS/MS analysis. Type of data set: ADME, organism-based.
In data set [11] the target is T2, von Hippel-Lindau disease tumor suppressor/Protein arginine N-methyltransferase 5. Kind of data set: PROTAC activity at PRMT5/VHL in human MDA-MB-453 cells assessed as degradation at 0.5 uM after 3 days by Western blot analysis. As to conditions: time 3.0 day. Type of data set: cell-based.
Data set [12] addresses T1, von Hippel-Lindau disease tumor suppressor/Methylosome protein WDR77. Kind of data set: PROTAC activity at MEP50/VHL in human MDA-MB-468 cells assessed as maximal degradation measured after 72 hrs by Western blot analysis relative to control. The class given is cell-based.
Data set [13] in a line: Cmax in Swiss albino mouse plasma at 50 mg/kg, ip measured after 0.5 hrs by LC-MS/MS analysis. The class given is ADME, organism-based. As to conditions: in vivo.
Data set [14] concerns MDA-MB-468. Kind of data set: Inhibition of sDMA (symmetric dimethylarginine) level in human MDA-MB-468 cells at 2 uM measured after 7 days by Western blot analysis. The class given is functional, cell-based. As to conditions: time 7.0 day.
The target in data set [15] is T2, von Hippel-Lindau disease tumor suppressor/Protein arginine N-methyltransferase 5. The data set is described as follows: PROTAC activity at PRMT5/VHL in VHL KO human MDA-MB-468 cells assessed as degradation at 5 uM of compound after 24 hrs by Western blot analysis. The class given is cell-based.

Active and inactive are the calls of the source. The rule behind the calls is not given here.

The values below come from ChEMBL document CHEMBL6109159, “Discovery of a Potent and Selective Protein Arginine Methyltransferase 5 (PRMT5) PROTAC Degrader” (J Med Chem, 2025).

The term Emax denotes the greatest response seen or fitted, relative to the assay's reference. For orientation: GI50 means the concentration at which growth is held to half of that of the control. The Cmax is the maximum level reached in the sampled fluid or tissue.

T1 sequence (P40337 whole entry, looked up): as above
T1 sequence (Q9BQA1 whole entry, looked up): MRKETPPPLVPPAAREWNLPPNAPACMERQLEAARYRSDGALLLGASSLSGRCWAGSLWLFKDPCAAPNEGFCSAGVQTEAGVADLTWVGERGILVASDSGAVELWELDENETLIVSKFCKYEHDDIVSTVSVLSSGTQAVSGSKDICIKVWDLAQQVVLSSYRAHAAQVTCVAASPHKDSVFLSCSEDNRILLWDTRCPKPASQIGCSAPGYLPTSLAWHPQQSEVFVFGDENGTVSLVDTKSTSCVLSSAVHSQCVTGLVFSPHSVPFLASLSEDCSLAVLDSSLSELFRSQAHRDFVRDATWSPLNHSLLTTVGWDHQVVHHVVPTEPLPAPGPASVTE

As for `Cc1ncsc1-c1ccc([C@H](CC(=O)NCCOCCOCCOCCOCCOCCC(=O)N2CCC(Nc3cc(C(=O)NC[C@H](O)CN4CCc5ccccc5C4)ncn3)CC2)NC(=O)[C@@H]2C[C@@H](O)CN2C(=O)[C@@H](NC(=O)C2(F)CC2)C(C)(C)C)cc1`, the figures for the Activity result in data set [1] and in data set [15] were “Time-dependent-effect” and “Not active; Complete Rescue Not Observed - Due To Incomplete Vhl Ko”, respectively. Further, the result (with PC-3; in data set [2]; in data set [3]; in data set [5]; in data set [7]; in data set [8]) was Active. Also, the outcome in data set [11] was Active. Besides, the “growth inhibition (GI)” value in the data set on BT-549 is “Active”. In addition, the results for the Emax in data set [4] and in [12] were 86% and 91.4%, respectively. Further, the outcome in [6] was inactive. Further, in the data set on MDA-MB-468 [9], the GI50 was 5.6 µM. In data set [10], this compound returned a concentration at 8 h of 0.2 µM. In [13], this compound showed a Cmax of 17.5 µM. Moreover, in the data set on MDA-MB-468 [14], the inhibition result was “Active”.
